From PubChem BioAssay (NCI)
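Cells were grown in 96-well plates and exposed to each compound for 48 hours at five concentrations; endpoints were interpolated linearly between bracketing concentrations, or set to the highest concentration if not reached. Here, GI50 denotes the concentration required for 50% inhibition of growth. The concentration for full growth arrest is given as TGI.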

Tests used:
Assay in all cases: growth of human tumour cells (NCI), 48 h
LOX IMVI melanoma = tested on: LOX IMVI melanoma
CAKI-1 renal = tested on: CAKI-1 renal
MALME-3M melanoma = tested on: MALME-3M melanoma
UO-31 renal = tested on: UO-31 renal
HL-60(TB) leukemia = tested on: HL-60(TB) leukemia
TK-10 renal = tested on: TK-10 renal
HCT-116 colon = tested on: HCT-116 colon
ACHN renal = tested on: ACHN renal
DU-145 prostate = tested on: DU-145 prostate
MDA-N = tested on: MDA-N

Cc1cc(N(CCC#N)CCC#N)ccc1/C=C1N=C(/C=C/c2ccccc2)N(c2ccc(S(N)(=O)=O)cc2)C\1=O
TGI (LOX IMVI melanoma): > 100 µM | TGI (CAKI-1 renal): > 100 µM | TGI (MALME-3M melanoma): > 100 µM | TGI (UO-31 renal): > 100 µM | TGI (HL-60(TB) leukemia): > 100 µM | TGI (TK-10 renal): > 100 µM | TGI (HCT-116 colon): > 100 µM | TGI (ACHN renal): > 100 µM

COc1ccc(C(OC(=O)[C@H](O[Si](C)(C)C(C)(C)C)[C@@H](NC(=O)c2ccccc2)c2ccccc2)c2ccc(OC)cc2)cc1
TGI (LOX IMVI melanoma): > 100 µM | TGI (CAKI-1 renal): > 100 µM | TGI (DU-145 prostate): > 100 µM | TGI (MALME-3M melanoma): > 100 µM | TGI (UO-31 renal): > 100 µM | TGI (TK-10 renal): > 100 µM | TGI (MDA-N): > 100 µM | TGI (HCT-116 colon): > 100 µM | TGI (ACHN renal): > 100 µM

O=S1(=O)OCCOS(=O)(=O)C1(Cl)Cl
TGI (LOX IMVI melanoma): > 100 µM | TGI (CAKI-1 renal): > 100 µM | TGI (MALME-3M melanoma): > 100 µM | TGI (UO-31 renal): > 100 µM | TGI (HL-60(TB) leukemia): > 100 µM | TGI (TK-10 renal): > 100 µM | TGI (HCT-116 colon): > 100 µM

Cc1cn(CC2=NC3CCCCC3N2)c(=O)[nH]c1=O (centres undefined)
TGI (LOX IMVI melanoma): > 100 µM | TGI (DU-145 prostate): > 100 µM | TGI (MALME-3M melanoma): > 100 µM | TGI (UO-31 renal): > 100 µM | TGI (HL-60(TB) leukemia): > 100 µM | TGI (TK-10 renal): > 100 µM | TGI (HCT-116 colon): > 100 µM | TGI (ACHN renal): > 100 µM

CC(NC(=O)C(N)CC(=O)O)C(=O)OC12CC3CC(CC(C3)C1)C2 (centres undefined)
TGI (LOX IMVI melanoma): > 100 µM | TGI (CAKI-1 renal): > 100 µM | TGI (DU-145 prostate): > 100 µM | TGI (UO-31 renal): > 100 µM | TGI (TK-10 renal): > 100 µM | TGI (HCT-116 colon): > 100 µM | TGI (ACHN renal): > 100 µM

CNCCCn1c2c(c3ccc(Cl)cc3c1=O)C(=O)c1cc(OC)cnc1-2
GI50 (CAKI-1 renal): 0.0631 µM | TGI (CAKI-1 renal): 1.78 µM | GI50 (DU-145 prostate): 0.331 µM | TGI (DU-145 prostate): 1.74 µM | GI50 (UO-31 renal): 1.08 µM | TGI (UO-31 renal): 2.64 µM | GI50 (HL-60(TB) leukemia): 0.601 µM | TGI (HL-60(TB) leukemia): 2.4 µM | GI50 (ACHN renal): 0.224 µM | TGI (ACHN renal): 1.58 µM

CC1=NN(c2cccc(Cl)c2)C2(C1=Cc1cccs1)C(Cl)C(=O)N2c1nc2ccccc2s1 (centres undefined)
TGI (LOX IMVI melanoma): 42.1 µM | TGI (CAKI-1 renal): 84.5 µM | TGI (DU-145 prostate): > 100 µM | TGI (UO-31 renal): 69.6 µM | TGI (HL-60(TB) leukemia): 61 µM | TGI (TK-10 renal): 66.3 µM | TGI (MDA-N): 48.1 µM | TGI (HCT-116 colon): 34.1 µM | TGI (ACHN renal): 50.6 µM

O=[N+]([O-])c1cnc(N(CCO)CCO)s1
TGI (LOX IMVI melanoma): > 100 µM | TGI (CAKI-1 renal): > 100 µM | TGI (DU-145 prostate): > 100 µM | TGI (MALME-3M melanoma): > 100 µM | TGI (UO-31 renal): > 100 µM | TGI (HL-60(TB) leukemia): > 100 µM | TGI (MDA-N): > 100 µM | TGI (HCT-116 colon): > 100 µM | TGI (ACHN renal): > 100 µM

O=C(/C=C\c1ccsc1)c1ccccc1
TGI (LOX IMVI melanoma): 7.58 µM | TGI (CAKI-1 renal): 8.12 µM | TGI (DU-145 prostate): 25.4 µM | TGI (UO-31 renal): 19.2 µM | TGI (HL-60(TB) leukemia): 4.16 µM | TGI (TK-10 renal): 29.3 µM | TGI (MDA-N): 25.8 µM | TGI (HCT-116 colon): 14.5 µM | TGI (ACHN renal): 21.1 µM

O=C(O)C1CC(C2CCCCN2)CN2CCCCC12 (centres undefined)
TGI (LOX IMVI melanoma): > 100 µM | TGI (CAKI-1 renal): > 100 µM | TGI (DU-145 prostate): > 100 µM | TGI (MALME-3M melanoma): > 100 µM | TGI (UO-31 renal): > 100 µM | TGI (TK-10 renal): > 100 µM | TGI (MDA-N): > 100 µM | TGI (HCT-116 colon): > 100 µM | TGI (ACHN renal): > 100 µM

COc1ccc(/C=C2\C[C@H]3[C@@H]4CC=C5C[C@@H](OC(C)=O)CC[C@]5(C)[C@H]4CC[C@]3(C)C2=O)cc1OC
TGI (LOX IMVI melanoma): > 100 µM | TGI (CAKI-1 renal): > 100 µM | TGI (DU-145 prostate): > 100 µM | TGI (MALME-3M melanoma): > 100 µM | TGI (UO-31 renal): 35.9 µM | TGI (HL-60(TB) leukemia): 78.9 µM | TGI (MDA-N): > 100 µM | TGI (HCT-116 colon): > 100 µM | TGI (ACHN renal): > 100 µM
